Eight molecules from PubChem BioAssay (NCI) can be followed below.

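Five concentrations, 48 hours, 96-well plates. TGI marks complete inhibition of growth.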

Among the test systems are SK-MEL-5 melanoma; TK-10 renal; SW-620 colon; RPMI-8226 leukemia; HCT-116 colon; UACC-62 melanoma; A549 NSCLC; ACHN renal; HCT-15 colon; MDA-N; M14 melanoma; CCRF-CEM leukemia; SR leukemia; MDA-MB-435; HOP-62 NSCLC; MALME-3M melanoma; EKVX NSCLC; LOX IMVI melanoma; UACC-257 melanoma.
Assay in all cases: NCI-60 cell line screen, 48 h

As to `CC(C)(C)OC(=O)N(O)CCCn1cnc2c(NC3CC3)ncnc21`, the TGI in the assay with SK-MEL-5 melanoma, in the assay on TK-10 renal, in the assay with SW-620 colon, in the assay on RPMI-8226 leukemia, in the assay with HCT-116 colon and in the assay on UACC-62 melanoma was more than 100 µM each time. The TGI with A549 NSCLC, in the assay with ACHN renal, in the assay with HCT-15 colon, in the assay with MDA-N, in the assay with M14 melanoma and in the assay on CCRF-CEM leukemia was more than 100 µM throughout. In addition, the TGI in the assay on SR leukemia, in the assay on MDA-MB-435, in the assay on HOP-62 NSCLC, in the assay on MALME-3M melanoma, in the assay on EKVX NSCLC and with LOX IMVI melanoma was more than 100 µM each time. The TGI with UACC-257 melanoma was more than 100 µM.
On to `COc1ccc2nc3c4c(nccc4c2c1)-c1ncccc1C3=O`, for which the TGI in the assay with SK-MEL-5 melanoma turned out to be 0.111 µM; in the assay with TK-10 renal it was 0.613 µM; with SW-620 colon, 0.567 µM; in the assay with RPMI-8226 leukemia it was 0.236 µM; in the assay on HCT-116 colon, 0.467 µM; in the assay with UACC-62 melanoma, 0.159 µM. For the same molecule, the TGI in the assay with A549 NSCLC came to 0.338 µM; in the assay with ACHN renal, 0.174 µM; in the assay on HCT-15 colon, 0.069 µM; in the assay with MDA-N, 0.128 µM; in the assay with M14 melanoma it was 0.29 µM; in the assay on CCRF-CEM leukemia, 2.57 µM. The TGI with SR leukemia stood at 0.0189 µM; in the assay with MDA-MB-435, 0.148 µM; in the assay on HOP-62 NSCLC, 0.402 µM; in the assay with MALME-3M melanoma, 0.291 µM; in the assay on EKVX NSCLC, 0.903 µM; in the assay on LOX IMVI melanoma, 0.0977 µM. The molecule also came in with a TGI in the assay on UACC-257 melanoma of 0.196 µM.
For the molecule `COc1ccc2c(O)c1-c1c(OC)ccc(c1O)SSc1ccc(OC)c(c1O)-c1c(OC)ccc(c1O)SS2`, the TGI in the assay on SK-MEL-5 melanoma is more than 100 µM; in the assay with TK-10 renal it was more than 100 µM; in the assay with SW-620 colon it was more than 100 µM; in the assay with RPMI-8226 leukemia, 7.07 µM; in the assay with HCT-116 colon it was more than 100 µM; in the assay on A549 NSCLC, more than 100 µM. In addition, the TGI was 18.5 µM in the assay on ACHN renal; more than 100 µM in the assay on MDA-N; more than 100 µM in the assay with M14 melanoma; more than 100 µM in the assay with CCRF-CEM leukemia; 21.5 µM in the assay on SR leukemia; more than 100 µM in the assay with MDA-MB-435. The TGI with HOP-62 NSCLC is more than 100 µM; in the assay with MALME-3M melanoma it was more than 100 µM; in the assay with EKVX NSCLC it was 44 µM; in the assay with LOX IMVI melanoma, more than 100 µM; with UACC-257 melanoma, more than 100 µM.
On to `O=C1CSC(c2ccccc2)N1c1ccc(-c2ccc(-n3c(-c4ccccc4)nc4ccccc4c3=O)cc2)cc1` (configuration not stated), for which the TGI with SK-MEL-5 melanoma, with TK-10 renal, in the assay with SW-620 colon, with RPMI-8226 leukemia, in the assay on UACC-62 melanoma and in the assay with A549 NSCLC was more than 100 µM each time. Besides, the TGI in the assay on ACHN renal, in the assay on HCT-15 colon, in the assay on MDA-N, in the assay on M14 melanoma, in the assay with CCRF-CEM leukemia and with SR leukemia was more than 100 µM throughout. In addition, the TGI with MDA-MB-435, in the assay with HOP-62 NSCLC, in the assay on MALME-3M melanoma, with EKVX NSCLC, in the assay with LOX IMVI melanoma and with UACC-257 melanoma was more than 100 µM in each case.
For the molecule `COc1ccc(/C(C)=C2\CCCN(Cc3ccccc3)C2)cc1`, the TGI is 36.8 µM in the assay on SK-MEL-5 melanoma; more than 100 µM with TK-10 renal; 36.1 µM in the assay on SW-620 colon; 47.4 µM in the assay on RPMI-8226 leukemia; 57.9 µM in the assay with UACC-62 melanoma; 86 µM in the assay with A549 NSCLC. Besides, the TGI with ACHN renal is 98.4 µM; in the assay with HCT-15 colon, 46.1 µM; with MDA-N, 47.7 µM; in the assay with M14 melanoma it was 36.7 µM; with CCRF-CEM leukemia it was 62.2 µM; with SR leukemia, 42.2 µM. Moreover, the TGI in the assay with MDA-MB-435 is 51.6 µM; in the assay on HOP-62 NSCLC it was 33.6 µM; in the assay on MALME-3M melanoma it was 34.8 µM; in the assay on EKVX NSCLC, more than 100 µM; in the assay with LOX IMVI melanoma, 35.3 µM; in the assay with UACC-257 melanoma, 86.4 µM.
In the case of `N#Cc1c(-c2ccccc2)cn(C(=O)c2ccccc2)c1N`, the TGI in the assay with SK-MEL-5 melanoma, with TK-10 renal, in the assay with SW-620 colon, in the assay with RPMI-8226 leukemia, in the assay with HCT-116 colon and in the assay on UACC-62 melanoma was more than 100 µM in each case. For the same molecule, the TGI with A549 NSCLC, in the assay with ACHN renal, in the assay with HCT-15 colon, with MDA-N, with M14 melanoma and in the assay on CCRF-CEM leukemia was more than 100 µM in each case. The TGI with SR leukemia, with MDA-MB-435, in the assay with HOP-62 NSCLC, with MALME-3M melanoma, with EKVX NSCLC and in the assay on LOX IMVI melanoma was more than 100 µM throughout.
Take `Cc1cn(CC(=S)NCCc2c[nH]c3ccccc23)c(=O)[nH]c1=O`: the TGI in the assay with SK-MEL-5 melanoma, with SW-620 colon, with RPMI-8226 leukemia, with HCT-116 colon, in the assay with UACC-62 melanoma and in the assay with A549 NSCLC was more than 100 µM throughout. Besides, the TGI with ACHN renal, in the assay with HCT-15 colon, in the assay with MDA-N, with M14 melanoma, in the assay with CCRF-CEM leukemia and in the assay with SR leukemia was more than 100 µM throughout. In addition, the TGI in the assay on MDA-MB-435, in the assay on HOP-62 NSCLC, with MALME-3M melanoma, in the assay on EKVX NSCLC and in the assay on LOX IMVI melanoma was more than 100 µM in each case.
Consider `Cc1cc(C)c(NS(=O)c2ccc(Cl)cc2)c(C)c1` (configuration not stated), for which the TGI with TK-10 renal, with SW-620 colon, in the assay with RPMI-8226 leukemia, in the assay on HCT-116 colon, in the assay on A549 NSCLC and in the assay on ACHN renal was more than 100 µM each time. The TGI in the assay with HCT-15 colon, in the assay with MDA-N, in the assay on M14 melanoma, with CCRF-CEM leukemia, with SR leukemia and in the assay with MDA-MB-435 was more than 100 µM in each case. In addition, the TGI in the assay on HOP-62 NSCLC, in the assay on MALME-3M melanoma, in the assay on EKVX NSCLC and in the assay on UACC-257 melanoma was more than 100 µM in each case.
